According to US20210363110A1, “4-METHYLDIHYDROPYRIMIDINONE COMPOUNDS AND PHARMACEUTICAL USE THEREOF” (Japan Tobacco Inc., priority 2018, published 2021):

How the values were obtained:
[1] = Metabolic stability in hepatocytes, human; type: in vitro ADME; details: residual ratio of unreacted substance, 1×10^6 cells/mL
Method: A test solution was prepared by diluting 10 mM DMSO solution of a test substance with acetonitrile by 20 times.
Human and animal cryopreserved hepatocyte (BIOIVT; Human (IVT-X008000), Rat (IVT-M00005), Monkey (IVT-M00305), Dog (IVT-M00205)) were adjusted with William's Medium E (SIGMA; W1878) to 1×10^6 cells/mL of a cell suspension, which was then added to a 96-well plate. Then, 1% of the solution of a test substance prepared was added to the reaction system, and the metabolic reaction was initiated. At a designated time, 0.1% formic acid-acetonitrile was added thereto, and the reaction was terminated.
(§1) The sample after termination of the reaction was separated by centrifugation (1400 g, 20 min.), and then the supernatant was measured by LC/MS (UPLC-SQD (waters)) to calculate a residual ratio of unreacted substances.

[2] = system: IL-17 production in plasmas; assay: IL-17 production in plasmas of antigen-sensitized mice; type: in vivo, C57BL/6J mice; details: for IL-17 concentration in plasma, % of control, 0.3 mg/kg: 0.3 mg/kg orally once daily for 7 days; for IL-17 concentration in plasma, % of control, 0.3 mg/kg / IL-17 concentration in plasma, % of control, 1 mg/kg: MOG/CFA/PTX-sensitized mice, blood at day 8, Normal 0%, Vehicle 100%; for IL-17 concentration in plasma, % of control, 1 mg/kg: 1 mg/kg orally once daily for 7 days; for ED50: Mus musculus, 168 h, oral once daily for 7 days, antigen-sensitized mice, calculated from the 0.3 and 1 mg/kg groups, read-out: ED50 (dose where the IL-17 concentration was decreased by 50%)
Method: Effects of test substances on IL-17 production in plasmas were assessed in antigen-sensitized mice. Antigen sensitization was performed according to Non Patent Literature 31. Nine-week old female C57BL/6J mice (Japan Charles River K. K.) were used as a test animal.
An emulsion prepared by mixing 3 mg/mL of myelin oligodendrocyte glycoprotein (MOG; ANASPEC) and 4 mg/mL of complete Freund's adjuvant (CFA; Chondrex) in an equal ratio was administered subcutaneously to a mouse at the bilateral abdomens at a volume of 50 μL/site (day 1). 1 μg/mL of pertussis toxin (PTX; List Biological Laboratories) was administered intraperitoneally at a volume of 200 μL/head (day 1 and 3). Blood was collected at day 8.
Administration was performed once daily for 7 days after the administration of emulsion (day 1 to 7). 0.5% (w/v) methyl cellulose (MC) was administered orally at a volume of 10 mL/kg to Normal group (normal mice) and Vehicle group (antigen-sensitized mice), and 0.03 mg/mL or 0.1 mg/mL of a test substance suspended in 0.5% (w/v) MC was administered orally at a volume of 10 mL/kg to a compound-administered group.
Blood was separated by centrifugation, and then the IL-17 concentration in plasma was measured with Quantikine (Registered trade mark) Mouse IL-17 ELISA Kit (R&D systems, Inc.).
The IL-17 concentration of Normal group was deemed to be 0% and that of Vehicle group was deemed to be 100%. The IL-17 concentration percentage (% of control) of the compound-administered group was calculated from the following equation.
% of control=(a−b)/(c−b)×100
a: IL-17 concentration of the compound-administered group b: IL-17 concentration of the Normal group c: IL-17 concentration of the Vehicle group
Then, a dose of compound where the IL-17 concentration was decreased by 50% (ED50) was calculated from the following equation.
ED50=10^(log(A/B)×(50−D)/(C−D)+log(B); provided that ED50=B in the case D=50, and ED50>B in the case D>50 A: dosed amount of the lower dose group (i.e. 0.3 mg/kg) B: dosed amount of the higher dose group (i.e. 1 mg/kg) C: % of control at the lower dose group D: % of control at the higher dose group

[3] = Metabolic stability in liver microsomes, human; type: in vitro ADME; details: residual ratio of unreacted substance, 0.2 mg/mL microsomes, NADPH generating system
Method: (§2) A test solution was prepared by diluting 10 mM DMSO solution of a test substance with acetonitrile by 100 times.
(§3) Human and animal liver microsomes (SEKISUI XENOTECH; Human (H2610), Rat (R1000), Mouse (M1000), Monkey (P2000), Dog (D1000)) were adjusted with potassium phosphate buffer (pH 7.4) to 0.2 mg/mL in the reaction system. Then, 1% of the solution of a test substance prepared was added to the reaction system. Thereto was added an NADPH generating system (prepared according to the method of Non Patent Literature 28), and the metabolic reaction was initiated. At a designated time, 0.1% formic acid-acetonitrile/water (3:1) was added thereto, and the reaction was terminated.
as §1

[4] = Metabolic stability in liver microsomes, dog; type: in vitro ADME; details: residual ratio of unreacted substance, 0.2 mg/mL microsomes, NADPH generating system
Method: as §2, §3, §1

[5] = Rat pharmacokinetic (PK) assay and measurement of plasma concentrations; type: in vivo; details: male rat, 0.3 mg/kg, DMSO solution, T1/2=0.693/Kel
Method: A DMSO solution (0.1 mL/kg) of test substance (0.3 mg/kg) was administered to a male rat (7-week old), and blood was collected at designated times (5, 10, 15, 30 min., 1, 2, 4, 8, 25 hr). Samples after the blood collection were separated by centrifugation (11000 g, 5 min.) to obtain plasmas.
A double volume of a mixed solution of acetonitrile/water (9:1) was added to a plasma sample obtained in (1) in order that proteins were extracted from the mixture. The sample after extraction was separated by centrifugation (11000 g, 5 min.), and the supernatant was measured by LC/MSMS (Nexera (Shimadzu)-QTrap5500 (AB SCIEX)). A calibration curve was measured simultaneously, and plasma concentrations were calculated.
The elimination rate constant (Kel) was calculated from two points of the elimination phase in the plasma concentration profile, and the half-life (T1/2) was calculated from the elimination rate constant.
Kel=−(ln Conc1−ln Conc2)/(t1−t2)

[6] = system: CYP3A4; assay: Potential for induction of CYP3A4 (Nuclear Receptor Activation Kit, DPX2 cells, reporter activity); type: in vitro ADME; details: 48 hours, % of positive control (rifampicin); for Potential for induction of CYP3A4, 3 μM: 3 μM compound; for Potential for induction of CYP3A4, 10 μM: 10 μM compound
Method: Potential for induction of CYP3A4 was evaluated with Nuclear Receptor Activation Kits (PURACYP; DPX2-96-002) according to protocols attached.
The following experiment was performed with substances accompanying Nuclear Receptor Activation Kits (PURACYP; DPX2-96-002).
A measurement method is specifically shown as follows. DPX2 cells were seeded on a 96-well plate and incubated with a CO2 incubator for 24 hours. […] The media on 96-well plate were removed with an aspirator 24 hours after seeding, and thereto was added the compound-supplemented medium which was prepared. CellTiter-Fluor was added to the medium 48 hours after the addition of compound, and the mixture was incubated with a CO2 incubator for 1 hour. Then, a cell viability was measured by the fluorometric method. ONE-Glo was added to the mixture, and the mixture was incubated with a CO2 incubator for 5 minutes. Then, the reporter activity was measured by luminescent determination. The induction ratio was calculated by comparing the resulting reporter activity with a DMSO control sample. % of positive control was calculated from the following equation.

[7] = Metabolic stability in liver microsomes, monkey; type: in vitro ADME; details: residual ratio of unreacted substance, 0.2 mg/mL microsomes, NADPH generating system
Method: as §2, §3, §1

[8] = Metabolic stability in liver microsomes, mouse; type: in vitro ADME; details: residual ratio of unreacted substance, 0.2 mg/mL microsomes, NADPH generating system
Method: as §2, §3, §1

Row | SMILES | Metabolic stability in hepatocytes at 240 min., Human [1] [%] | IL-17 concentration in plasma, % of control, 0.3 mg/kg [2] | IL-17 concentration in plasma, % of control, 1 mg/kg [2] | ED50 [2] [mg/kg] | Metabolic stability in liver microsomes at 60 min., Human [3] [%] | Metabolic stability in liver microsomes at 60 min., Dog [4] [%] | half-life [5] [h] | Potential for induction of CYP3A4, 3 μM [6] [%] | Potential for induction of CYP3A4, 10 μM [6] [%] | Metabolic stability in liver microsomes at 60 min., Monkey [7] [%] | Metabolic stability in liver microsomes at 60 min., Mouse [8] [%] | Potential for induction of CYP3A4, 30 μM ([6]; 30 μM compound) [%]
1 | CC[C@H](C)C1=CN(C23CC(C(=O)O)(C2)C3)C(=O)N[C@@]1(C)c1ccc([C@@H]2C[C@H]2C(C)(C)C)c(Cl)c1 [Compound (2), 3-{(S)-5-((S)-sec-Butyl)-4-[4-((1R,2R)-2-tert-butyl-cyclopropyl)-3-chloro-phenyl]-4-methyl-2-oxo-3,4-dihydro-2H-pyrimidin-1-yl}bicyclo[1.1.1]pentane-1-carboxylic acid] | 94 | 85 (=C) % | 54 (=D) % | > 1 | 96 | 95 | 13.2 | <10 | <10 | 96 | 98 | –
2 | CC(C)C1=CN(C23CC(C(=O)O)(C2)C3)C(=O)N[C@@]1(C)c1ccc([C@@H]2C[C@H]2C(C)(C)C)c(Cl)c1 [Compound (1), 3-{(S)-4-[4-((1R,2R)-2-tert-Butyl-cyclopropyl)-3-chloro-phenyl]-5-isopropyl-4-methyl-2-oxo-3,4-dihydro-2H-pyrimidin-1-yl}bicyclo[1.1.1]pentane-1-carboxylic acid] | 94 | 66 (=C) % | 24 (=D) % | 0.5 | 99 | 98 | 10.5 | <10 | <10 | 93 | 95 | <10
